Several values for one entry are separate records, joined by “and”; a condition that tells them apart may be missing. Equal entries are not always repeated.
System: 292921-168-R-J2-PDC complex spheroid viability
Assay: Anticancer human tumor 292921-168-R-J2-PDC patient-derived pancreatic carcinoma cell line growth inhibition
Conditions: for viability, T/C: stronger effect = lower value; for IC50: curve of compound
From the text: Multicellular complex tumor spheroid response to LSD1 Inhibitor Iadademstat in combination with a variety of drugs and investigational agents in selected tumor cell lines
The current study was undertaken to assess response to LSD1 inhibitors in combination with standard-of-care drugs and investigational agents in solid tumor complex spheroid models as well as in the K-562 leukemia. Complex spheroids include a stromal component modeled by human endothelial cells (HUVEC) and fibroblasts modeled by human mesenchymal stem cells (MSCs). The concentration ranges selected for each drug and investigational agent were based upon clinically achievable concentrations if the clinical Cmax of the agent was known.
Compounds. The drugs and investigational agents used in this study are listed on Table 1. All of the agents used, including staurosporine (NSC755774) and gemcitabine (NSC613327), were obtained from the Developmental Therapeutics Program, NCI. FDA-approved anticancer drugs are available from the NCI at http://dtp.nci.nih.gov/branches/dscb/oncology_drugset_explanation.html. Drugs and investigational agents were >95% pure by proton nuclear magnetic resonance (NMR) and liquid chromatography/mass spectrometry (LC/MS). Stock solutions were prepared at 400x in DMSO, stored at -70 degrees C, and diluted in fresh medium prior to their use. The final concentration of DMSO in cell culture wells never exceeded 0.25% (v/v). The FDA-approved anticancer drug set is available from the Developmental Therapeutics Program at https://dtp.cancer.gov/organization/dscb/obtaining/available_plates.htm. All drugs and investigational agents were tested over a range starting from a high concentration at or near the clinical Cmax and decreasing in half-log increments. If the clinical Cmax for an agent had not been determined, the highest concentration tested was 10 microM.
Cell Lines. The patient-derived cancer cell (PDC) lines: 292921-168-R-J2-PDC, K24384-001-R-PDC, and 521955-158-R2-J5-PDC pancreatic carcinomas, 556581-035-R-J1 ovarian carcinoma, 324938-238-R-J1-PDC, 855422-203-R-J1-PDC and 883617-216-R-J1-PDC urothelial bladder carcinomas, 743489-274-T-PDC renal cell carcinoma, 138582-R-J1 Merkel cell tumor, K60290-347-R-J1 and K57222-313-R-J1-PDC glioblastomas, 653999-131-R-J2-PDC, LG0703-F948-PDC, and 349418-098-R-PDC non-small cell lung carcinomas, 885512-296-R-J2-PDC, 171881-019-R-J1-PDC breast carcinomas and 186277-243-T-J2-PDC and 233499-124-R-J2-PDC colon carcinomas were obtained from the NCI Patient-Derived Models Repository (PDMR, https://pdmr.cancer.gov). The established cell lines NCI/ADR-RES (RRID:CVCL_14520 and OVCAR-5 (RRID:CVCL_1628) ovarian carcinomas, 786-O (RRID:CVCL_1051) and A498 (RRID:CVCL_A498) renal cell carcinoma, NCI-H211 (ATCC, cat. CRL-5824; RRID:CVCL_1529), NCI-H196 (ATCC, cat. CRL-5823, RRID:CVCL_1509), SW 1271 (ATCC, cat. CRL-2177, RRID:CVCL_1716) and NCI-H1876 (ATCC, cat. CRL-5902, RRID:CVCL_1503) small cell lung carcinomas, MDA-MB-231 (RRID:CVCL_0062) and MDA-MB-468 (RRID:CVCL_0419)breast carcinomas (10-12). Pooled donor human umbilical vein endothelial cells (HUVEC, Lonza, cat. CC-2519) and human mesenchymal stem cells (hMSC, Lonza, cat. PT-2501) were purchased from Lonza (Walkersville, MD).
Cell Culture. All cells were maintained in an incubator at 37 degrees C and 5% CO2 with 95% humidity. The PDC lines were cultured according to standard operating procedures established by the NCI PDMR (https://pdmr.cancer.gov). Briefly all PDCs were thawed and cultured in Matrigel-coated flasks prepared with a working solution of 1X Ham's F-12 nutrient mix, without supplementation (Invitrogen, Waltham, MA, cat. 11765054), 100 U/mL penicillin-streptomycin (Invitrogen, cat. 15140122), and 2.5% Matrigel (Corning Inc., Corning, NY, cat. 354248) for the first three passages. […]
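Further: seven day compound exposure before luminescent viability read.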
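Wherever viability, T/C is given: 100% = DMSO vehicle control wells.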

| Structure (SMILES) | IC50 | viability, T/C (compound 0.0316 µM) | viability, T/C (compound 0.1 µM) | viability, T/C (compound 0.316 µM) | viability, T/C (compound 1 µM) | viability, T/C (compound 3.16 µM) | viability, T/C (compound 10 µM) | viability, T/C (compound 0.000316 µM) | viability, T/C (compound 0.001 µM) | viability, T/C (compound 0.00316 µM) | viability, T/C (compound 0.01 µM) | viability, T/C (compound 0.00949 µM) | viability, T/C (compound 0.03 µM) | viability, T/C (compound 0.0949 µM) | viability, T/C (compound 0.3 µM) | viability, T/C (compound 0.949 µM) | viability, T/C (compound 3 µM) | viability, T/C (compound 0.000949 µM) | viability, T/C (compound 0.003 µM) |
| --- | --- | --- | --- | --- | --- | --- | --- | --- | --- | --- | --- | --- | --- | --- | --- | --- | --- | --- | --- |
| COc1ccc([C@@H](O)c2cc(-c3ncnc4cc(N5CCOCC5)ccc34)c(F)cc2Cl)nn1 | 0.59 µM and 0.738 µM | 101% and 104% | 95.7% and 82.2% | 61.2% and 71.4% | 37.6% and 42.1% | 24.7% and 24.6% | 11.6% and 13.1% |  |  |  |  |  |  |  |  |  |  |  |  |
| NC1CC1c1ccc(-c2cccc(O)c2)cc1 (stereo not given) |  |  | 80.2% | 71.4% [middle of 24 runs] | 67.6% [middle of 25 runs] | 64.6% [middle of 25 runs] | 54.7% [middle of 25 runs] |  |  |  |  |  |  |  |  |  |  |  |  |
| NC1CCC(NC2CC2c2ccccc2)CC1 (stereo not given) |  |  | 65.7% [middle of 25 runs] | 56.6% and 63.5% | 58% [middle of 25 runs] | 57.4% [middle of 25 runs] | 54.2% [middle of 23 runs] |  |  |  |  |  |  |  |  |  |  |  |  |
| Nc1ccccc1NC(=O)c1ccc(CNC(=O)OCc2cccnc2)cc1 | 0.0249 µM and 0.0283 µM |  |  |  |  |  |  |  |  |  |  | 67.9% and 65.7% | 45.2% and 49.2% | 31% and 31.7% | 17.2% and 19.8% | 4.09% and 5.39% | 0.29% and 0.27% |  |  |
| O=C(C=Cc1cccc(S(=O)(=O)Nc2ccccc2)c1)NO | < 0.00949 µM and 0.0128 µM |  |  |  |  |  |  |  |  |  |  | 47.6% and 52.8% | 41% and 44.1% | 28.8% and 32.3% | 18.1% and 25.8% | 0.52% and 1.26% | 0.15% |  |  |
| O=C(C=Cn1cnc(-c2cc(C(F)(F)F)cc(C(F)(F)F)c2)n1)NNc1cnccn1 | 0.0124 µM and 0.0114 µM | 30.4% and 29.4% | 14.4% and 14.1% | 8.05% and 8.45% | 5.62% and 5.3% |  |  |  |  | 59.5% and 55.2% | 55.9% and 55% |  |  |  |  |  |  |  |  |

More lines, main results first:

| IC50 | Structure (SMILES) | viability, T/C (compound 0.0316 µM) | viability, T/C (compound 0.1 µM) | viability, T/C (compound 0.316 µM) | viability, T/C (compound 1 µM) | viability, T/C (compound 3.16 µM) | viability, T/C (compound 10 µM) | viability, T/C (compound 0.000316 µM) | viability, T/C (compound 0.001 µM) | viability, T/C (compound 0.00316 µM) | viability, T/C (compound 0.01 µM) | viability, T/C (compound 0.00949 µM) | viability, T/C (compound 0.03 µM) | viability, T/C (compound 0.0949 µM) | viability, T/C (compound 0.3 µM) | viability, T/C (compound 0.949 µM) | viability, T/C (compound 3 µM) | viability, T/C (compound 0.000949 µM) | viability, T/C (compound 0.003 µM) |
| --- | --- | --- | --- | --- | --- | --- | --- | --- | --- | --- | --- | --- | --- | --- | --- | --- | --- | --- | --- |
| > 0.1 µM | Cn1ncnc1C1c2n[nH]c(=O)c3cc(F)cc(c23)NC1c1ccc(F)cc1 (stereo not given) | 85.9% and 88.3% | 82.3% and 83.5% |  |  |  |  | 86.8% and 103% | 102% and 101% | 94.5% and 96.3% | 93.9% and 94.8% |  |  |  |  |  |  |  |  |
| 0.0164 µM and 0.0181 µM | NS(=O)(=O)OCC1CC(n2ccc3c(NC4CCc5ccccc54)ncnc32)CC1O (stereo not given) |  |  |  |  |  |  |  |  |  |  | 81.2% and 90.5% | 15.7% and 18% | 2.87% and 3.52% | 1.94% and 1.72% | 1.98% and 1.67% | 1.78% and 1.54% |  |  |
| < 0.000949 µM | Nc1ccn(C2OC(CO)C(O)C2(F)F)c(=O)n1 (stereo not given) |  |  |  |  |  |  |  |  |  |  | 6.12% and 5.67% | 5.81% and 5.6% | 8.04% and 6.06% | 6.84% and 5.56% |  |  | 39.2% and 33.5% | 12% and 10.8% |
| > 1 µM | Nc1ncn(C2CC(O)C(CO)O2)c(=O)n1 (stereo not given) | 71.8% and 82.9% | 69.7% and 73.9% | 63.4% and 63.6% | 55.4% and 58.2% |  |  |  |  | 98.6% and 89% | 96.7% and 91.5% |  |  |  |  |  |  |  |  |
| 0.0725 µM and 0.0837 µM | Nc1ncn(C2CC(O)C(CO)S2)c(=O)n1 (stereo not given) |  |  |  |  |  |  |  |  |  |  | 84% and 88.4% | 72.4% and 80.4% | 43.5% and 45.3% | 13.5% and 13.6% |  |  | 96.5% and 102% | 104% and 92.4% |
| 9.28 µM and 7.49 µM | O=C(c1cc(Cc2n[nH]c(=O)c3ccccc23)ccc1F)N1CCN(C(=O)C2CC2)CC1 | 106% and 100% | 98.8% and 100% | 98.5% and 99.6% | 95.4% and 85.9% | 74.9% and 73% | 48.1% and 42.4% |  |  |  |  |  |  |  |  |  |  |  |  |
